# In publication PMC10376691, “Inhibition of Acetylcholinesterase and Amyloid-β Aggregation by Piceatannol and Analogs: Assessing In Vitro and In Vivo Impact on a Murine Model of Scopolamine-Induced Memory Impairment” (Antioxidants, 2023):
# Tested on: SH-SY5Y cells
# Assay: Cytotoxicity on SH-SY5Y cells (MTT)
# Format: cell-based
# Conditions: 1, 2, 5 and 10 μM, MTT (Figure S1)
# Description: The human SH-SY5Y neuroblastoma cell lines (CRL-2266, Lot No. 58979771) were purchased from American Type Culture Collection (Manassas, VA, USA) and used as models to investigate PIC and its analogs for neuroprotective activities against Aβ-induced cell deaths and the stimulation of neurite outgrowths. The SH-SY5Y cells were grown in DMEM/F-12 medium supplemented with 10% FBS at 37 °C under a humidified atmosphere and 5% CO2 [41]. […]. The SH-SY5Y cells (10,000 cells/well) were seeded and cultured in a DMEM/F-12 medium containing 10% FBS for 24 h at 37 °C under a humidified atmosphere and 5% CO2. […] The medium was then removed, and 40 μg/mL Aβ peptide (25–35) (dissolved in PBS) or an equal aliquot of PBS was added to the medium for another 24 h culture. The MTT was used to evaluate cell viability, and the absorbance at 570 nm was determined. The DMSO used instead of the sample solution was blank (recognized as 100%), and each treatment was expressed as relative cell viability (%). […] To measure cell viability and quantify the neurite outgrowths of the treated SH-SY5Y in a 96-well plate, the neurite outgrowth staining kit (a two-color fluorescence assay kit) was used, following a previous report or the protocol in the manufacturer’s manual (publication number: MAN0007224), which included a cell membrane-stained fluorescent dye (orange-red fluorescence), a cell viability indicator (green fluorescence), and a reagent for background masking. The fluorescence ratios of Ex555nm/Em565nm and Ex495nm/Em515nm were determined for the neurite outgrowths and the cell viabilities, respectively. […]
# The following supporting information can be downloaded at: https://www.mdpi.com/article/10.3390/antiox12071362/s1. […] The MTT was used to evaluate cell viability, and the absorbance at 570 nm was determined. The DMSO used instead of the sample solution was blank (recognized as 100%), and each treatment was expressed as relative cell viability (%). […]
structure (smiles),measurement,value
"Oc1cc(O)cc(C=Cc2ccc(O)c(O)c2)c1 [PIC, 3,5,3′,4′-tetrahydroxystilbene]",cytotoxicity on SH-SY5Y cells,insignificant cytotoxicity
